Source: patent publication US20160271086A1, “METHODS AND COMPOSITIONS FOR INDUCING REGULATORY T-CELL GENERATION” (SLOAN-KETTERING INSTITUTE FOR CANCER RESEARCH, priority 2013, published 2016)

Tests used:
[1] = system: Flt3L-elicited DC; assay: Foxp3 induction by DC pre-treated with SCFA or TSA for 6 h, washed, co-cultured with naïve CD4+ T cells; format: cell-based, mouse; conditions: DC pre-treated 6 h, then agent removed
Protocol: DC were expanded in vivo by subcutaneous injection of B16 melanoma cells secreting FLT3-ligand into the left hind flank of mice as indicated. Once tumors were visible, spleens from injected animals were dissociated in RPMI 1640 medium containing 1.67 U mL-1 liberase TL (Roche) and 50 μg mL-1 DNAse I (Roche) for 20 min at 37° C. with shaking EDTA was then added at a final concentration of 5 mM to stop digestion and the resulting homogenate was processed for CD11c+ cell isolation using the MACS mouse CD11c (N418) purification kit (Miltenyi Biotec).
In vitro Foxp3 induction assays were performed by co-culturing DC with 5.5×10^4 CD4+CD44loCD62LhiCD25-naïve T cells in the presence of 1 μg ml-1 of CD3 antibody, 1 ng mL-1 TGF-β, and 100 U ml-1 IL-2, in 96-well flat-bottom plates for 4 d. For Foxp3 induction in the presence of butyrate- or TSA-pretreated DC, TGF-β was used at 0.1 ng mL-1 final concentration. In vitro induction assays in the absence of DC were performed by incubating 5.5×10^4 naïve CD4+ T cells with 1 ng mL-1 TGF-β, 100 U ml-1 IL-2, and a 1:1 cell-to-bead ratio of CD3/CD28 T activator Dynabeads (Invitrogen). For in vitro suppression assays, 4×10^4 naïve CD4+ T cells were FACS-sorted from B6 mice and cultured with graded numbers of CD4+Foxp3+ Treg cells FACS-sorted from Foxp3GFP mice treated with antibiotics and with or without butyrate, in the presence of […] irradiated T cell-depleted splenocytes and 1 μg ml-1 CD3 antibody in a 96-well round-bottom plate for 80 h. Proliferation of T cells was assessed by [3H]-thymidine incorporation during the final 8 h of culture.

[2] = system: T cells; conditions: Wang et al. 2009; Tao et al. 2007; cited from earlier work
[3] = system: LPS response genes; assay: Gene expression in DC (microarray, Relb qPCR); format: cell-based, mouse; conditions: 6 h
Protocol: FIG. 4 depicts HDAC-inhibitory activity of butyrate decreases pro-inflammatory cytokine expression within DC to promote Treg induction: A) Histone acetylation in Flt3L-elicited DC from B6 mice treated with the indicated SCFA (500 μM) or TSA (10 nM) for 6 h followed by acid extraction of histones from isolated nuclei, SDS-PAGE and blotting with antibody for pan-acetylated H3. Total histone H3 served as a loading control; B) Induction of Foxp3 expression upon stimulation of naïve CD4+ T cells by CD3 antibody in the presence of SCFA or TSA, Flt3L-elicited DC and TGF-β; C) RelB gene expression quantified by qPCR in purified Flt3L-elicited DC from B6 mice treated for 6 h with SCFA or TSA, as in (A); and D) RelB gene expression quantified by qPCR in purified Flt3L-elicited DC from B6 mice treated with or without TSA in combination with, or in the absence of, butyrate at the indicated concentrations.
The data are shown as percent of CD4+ cells expressing Foxp3 after 4 days of culture. Data are representative of 2 independent experiments; error bars denote SEM.

[4] = system: dendritic cells; assay: Treg induction by dendritic cells treated with soluble or liposome encapsulated TSA; format: cell-based; conditions: DC treated 6 hrs with soluble or liposome encapsulated TSA, washed, incubated with naïve CD4+ T cells
Excerpt: TSA was encapsulated in lipid particles containing mixtures of lipids for release of contents only upon entry into cells. For details see Karve et al. Langmuir 2008, 24, 5679-5688. To monitor incorporation of TSA into liposomes, lipids were dissociated with hydrogenated Triton-X and monitored for increased UV absorption compared to free TSA and ‘empty’ liposomes. >85% of free TSA is incorporated into the lipid particles.
The ability of dendritic cells to induce Treg development in vitro after exposure to lipopsome encapsulated TSA was evaluated. Doubly bead-purified dendritic cells were treated for 6 hrs with soluble or liposome encapsulated TSA then washed and incubated with naïve CD4+ T cells. Pretreatment of DCs with TSA increased the generation of Foxp3+ cells relative to vehicle control (FIG. 11).

## CC(/C=C/C(=O)NO)=C\[C@@H](C)C(=O)c1ccc(N(C)C)cc1 [TSA, trichostatin A]
[1]
  ability of pre-treated DCs to induce Foxp3 expression in naïve CD4+ T cells: potently induced
[2]
  Treg cell generation in vitro by acting on T cells: potentiates
[3]
  expression of LPS response genes including 1112, 116, and Relb in DCs: systemic repression
[4]
  generation of Foxp3+ cells relative to vehicle control: increased
